Molecules are shown by their SMILES. Converted amounts (≈) assume the structure as drawn.

Data set [1] in a line: Kinetic solubility of the compound at pH 7.4. In kind it is physicochemical. Conditions: buffer, read-out: Kinetic_solubility.
Data set [2] can be described thus: Apparent permeability from apical to basolateral side in MDCK cells. The conditions noted are these: dog. The class given is ADME, cell-based, Canis lupus familiaris.
A further data set relates to Mus musculus. The data set is described as follows: In vivo inhibition of IL13 induced STAT6 phosphorylation in mouse lung administered as i.t dose relative to ocntrol. The class given is functional.
Data set [3] can be described thus: Dissociation constant, pKa of compound. The class given is physicochemical.
Data set [4] relates to Rattus norvegicus. The data set is described as follows: In vivo inhibition of eosinophils in rat bronchoalveolar lavage fluid at 4.76 ug/kg administered as dry powder inhalation relative to control. The class given is functional. Conditions: inhaled or nasal.
Data set [5] relates to Rattus norvegicus. Description: In vivo inhibition of eosinophils in rat bronchoalveolar lavage fluid at 0.6 ug/kg administered as dry powder inhalation relative to control. Conditions: inhaled or nasal. The class given is functional.
The target of data set [6] is Janus Kinase (JAK) (Homo sapiens) (UniProt P52333+P23458+O60674+P29597).
Description: Binding affinity to JAK in human PBMC assessed as half life measured after compound washout was out

As a reminder, the Papp A→B is the apparent permeability from the apical to the basolateral side of a cell layer. For `CN(CCC#N)C1CCN(C(=O)Cn2cc(NC(=O)c3cnn4cccnc34)c(-c3cc(Cl)ccc3OC(F)F)n2)CC1`, in data set [1], the solubility kinetic turned out to be 34 µM (≈ 20.8 µg/mL). Further, the Papp A→B in data set [2] was determined as 2.7 ×10⁻⁶ cm/s.

Usually pKa stands for the negative logarithm of the acid dissociation constant. Higher therefore signals a weaker acid or stronger base. With `CCc1cc(O)c(F)cc1-c1ccc2c(-c3nc4c([nH]3)CCN(C3CCN(C)CC3)C4)n[nH]c2c1`, the “inhibition (INH)” value in the data set with Mus musculus was 60%. For the same molecule, the pKa in data set [3] was determined as 10.5.

In general, inhibition in vivo refers to the drop in the measured response relative to a control, in per cent. Regarding `COC[C@H](C(=O)Nc1cccc2c(-c3nc(Nc4cccc(S(C)(=O)=O)c4F)ncc3F)c[nH]c12)N1CCN(C)CC1` [LONDAMOCITINIB], in the data set with Rattus norvegicus [4], the inhibition in vivo at 0.00476 mg/kg came to 61%. Further, in the data set on Rattus norvegicus [5], at 0.0006 mg/kg the inhibition in vivo was 68%.

Take `CCc1cc(O)c(F)cc1-c1ccc2c(-c3nc4c([nH]3)CCN(C(=O)c3cnc(N5CCCCC5)cn3)C4)n[nH]c2c1`: the T1/2 in data set [6] was determined as 9 h.

Values taken from ChEMBL document CHEMBL4311961, “Inhaled Janus Kinase (JAK) inhibitors for the treatment of asthma” (Bioorg Med Chem Lett, 2019).
